From patent publication US20230203063A1, “TRICYCLIC PYRIDONES AND PYRIMIDONES” (Erasca, Inc., priority 2019, published 2023)

These compounds were tested against T1, mutant G12C K-RAS (Homo sapiens, UniProt P01116, G12C) (assay: covalent adduct formation (CAF) with mutant G12C K-RAS). Settings: Table 1; 10 micromolar, after 60 minutes.
T1 construct: made in house; host or cells: E. coli BL21
Format: binding
Design: covalent adduct formation (CAF): unit not given here
Protocol: Embodiments disclosed herein are further illustrated by the following examples in Tables 1-4 and the Examples hereinbelow. The Tables indicate the compound number, structure, the observed mass spectral molecular weight peak, and covalent adduct formation (CAF) with a mutant G12C K-RAS after 60 minutes at a concentration of 10 micromolar.

| Compound | % CAF(60 min) |
| --- | --- |
| C=CC(=O)N1CCN(c2nc(=O)n3c4c(c(-c5c(C)ccc6[nH]ncc56)c(Cl)cc24)OCC3)CC1 [Example 3, 7-(4-acryloylpiperazin-1-yl)-9-chloro-10-(5-methyl-1H-indazol-4-yl)-2H-[1,4]oxazino[2,3,4-ij]quinazolin-5(3H)-one] | 67.4% |

Same assay, conditions: Table 4; 10 micromolar, after 60 minutes

| Compound | % CAF(60 min) |
| --- | --- |
| C=CC(=O)N1C[C@H](C)N(c2c(C#N)c(=O)n3c4c(c(-c5ccc(F)cc5F)ccc24)OC[C@@H]3CN(C)C)C[C@H]1C [Example 51, (S)-7-((2S,5R)-4-acryloyl-2,5-dimethylpiperazin-1-yl)-10-(2,4-difluorophenyl)-3-((dimethylamino)methyl)-5-oxo-3,5-dihydro-2H-[1,4]oxazino[2,3,4-ij]quinoline-6-carbonitrile] | 0% |

Same assay, conditions: Table 6; 10 uM, 1 h

| Compound | % CAF @ 10 uM, 1 h |
| --- | --- |
| C=CC(=O)N1C[C@H](C)N(c2nc(=O)n3c4c(c(-c5c(C)ccc6[nH]ncc56)c(Cl)cc24)OC[C@H]3CCCN2C[C@@H]3C[C@H]2CO3)C[C@H]1C [Example 325, (3R,10S)-3-(3-((1S,4S)-2-oxa-5-azabicyclo[2.2.1]heptan-5-yl)propyl)-7-((2S,5R)-4-acryloyl-2,5-dimethylpiperazin-1-yl)-9-chloro-10-(5-methyl-1H-indazol-4-yl)-2,3-dihydro-5H-[1,4]oxazino [2,3,4-ij] quinazolin-5-one] | 0% |
| C=CC(=O)N1CCN(c2nc(=O)n3c4c(c(-c5c(O)cccc5F)c(Cl)cc24)OC[C@H]3CN2CCOCC2)[C@@H](C)C1 [Example 199, (3R,10R)-7-((S)-4-aciyloyl-2-methylpiperazin-1-yl)-9-chloro-10-(2-fluoro-6-hydroxyphenyl)-3-(morpholinomethyl)-2,3-dihydro-5H-[1,4]oxazino[2,3,4-ij]quinazolin-5-one] | 0% |
| C=CC(=O)N1CCN(c2nc(=O)n3c4c(c(-c5c(O)cccc5F)c(Cl)cc24)OC[C@H]3CN2CCOCC2)[C@@H](C)C1 [Example 198, (3R,10S)-7-((S)-4-acryloyl-2-methvlpiperazin-1-yl)-9-chloro-10-(2-fluoro-6-hydroxyphenyl)-3-(morpholinomethyl)-2,3-dihydro-5H-[1,4]oxazino[2,3,4-ij]quinazolin-5-one] | 100% |
| C=CC(=O)N1C[C@H](C)N(c2nc(=O)n3c4c(c(-c5c(O)cccc5F)c(Cl)cc24)OC[C@@H]3CN(C)CC(F)(F)F)C[C@H]1C (atropisomer, axis not shown) [Example 239, (3S,10R)-7-((2S,5R)-4-acryloyl-2,5-dimethylpiperazin-1-yl)-9-chloro-10-(2-fluoro-6-hydroxyphen-yl)-3-((methyl(2,2,2-trifluoroethyl)amino)-methyl)-2H-[1,4]-oxazino[2,3,4-ij]-quinazolin-5(3H)-one] | 3% |
| C=CC(=O)N1C[C@H](C)N(c2nc(=O)n3c4c(c(-c5c(O)cccc5F)c(Cl)cc24)OC[C@@H]3CN2CCN(C)CC2)C[C@H]1C (atropisomer, axis not shown) [Example 305, (3S,10R)-7-((2S,5R)-4-acryloyl-2,5-dimethylpiperazin-1-yl)-9-chloro-10-(2-fluoro-6-hydroxyphen-yl)-3-((4-methylpiper-azin-1-yl)methyl)-2,3-dihydro-5H-[1,4]-oxazino[2,3,4-ij]-quinazolin-5-one] | 0% |
| C=CC(=O)N1C[C@H](C)N(c2nc(=O)n3c4c(c(-c5c(F)cccc5C(F)F)ccc24)OCC3)C[C@H]1C [Example 200, 7-((2S,5R)-4-acryloyl-2,5-dimethylpiperazin-1-yl)-10-(2-(difluoromethyl)-6-fluorophenyl)-2,3-dihydro-5H-[1,4]oxazino[2,3,4-ij]quinazolin-5-one] | 0% |
| C=CC(=O)N1C[C@H](C)N(c2nc(=O)n3c4c(c(-c5c(C)ccc6[nH]nnc56)ccc24)OCC3)C[C@H]1C [Example 219, 7-((2S,5R)-4-acryloyl-2,5-dimethylpiperazin-1-yl)-10-(5-methyl-1H-benzo[d][1,2,3]triazol-4-yl)-2,3-dihydro-5H-[1,4]oxazino[2,3,4-ij]quinazolin-5-one] | 0% |
| C=CC(=O)N1C[C@H](C)N(c2nc(=O)n3c4c(c(-c5c(C)ccc6[nH]ncc56)c(Cl)cc24)OC[C@H]3Cn2cccn2)C[C@H]1C (atropisomer, axis not shown) [Example 319, (3R,10S)-3-((1H-pyrazol-1-yl)methyl)-7-((2S,5R)-4-acryloyl-2,5-dimethylpiperazin-1-yl)-9-chloro-10-(5-methyl-1H-indazol-4-yl)-2,3-dihydro-5H-[1,4]oxazino[2,3,4-ij]-quinazolin-5-one] | 0% |
| C=CC(=O)N1C[C@H](C)N(c2nc(=O)n3c4c(c(-c5c(F)ccc6[nH]nnc56)ccc24)OCC3)C[C@H]1C [Example 223, 7-((2S,5R)-4-acryloyl-2,5-dimethylpiperazin-1-yl)-10-(5-fluoro-1H-benzo[d][1,2,3]triazol-4-yl)-2,3-dihydro-5H-[1,4]oxazino[2,3,4-ij]quinazolin-5-one] | 0% |
| C=CC(=O)N1C[C@H](C)N(c2nc(=O)n3c4c(c(-c5c(O)cccc5F)c(Cl)cc24)OC[C@H]3Cn2cccn2)C[C@H]1C (atropisomer, axis not shown) [Example 245, (3R,10R)-3-((1H-pyrazol-1-yl)methyl)-7-((2S,5R)-4-acryloyl-2,5-dimethylpiperazin-1-yl)-9-chloro-10-(2-fluoro-6-hydroxyphen-yl)-2H-[1,4]oxazino-[2,3,4-ij]quinazolin-5(3H)-one] | 0% |
| C=CC(=O)N1C[C@H](C)N(c2nc(=O)n3c4c(c(-c5c(F)ccc6c5C(=O)NC6)ccc24)OCC3)C[C@H]1C [Example 231, 7-((2S,5R)-4-acryloyl-2,5-dimethylpiperazin-1-yl)-10-(5-fluoro-3-oxoisoindolin-4-yl)-2,3-dihydro-5H-[1,4]oxazino[2,3,4-ij]quinazolin-5-one] | 0% |
| C=CC(=O)N1C[C@H](C)N(c2nc(=O)n3c4c(c(-c5ccccc5C(F)(F)F)c(Cl)cc24)OCC3)C[C@H]1C [Example 197, 7-((2S,5R)-4-acryloyl-2,5-dimethylpiperazin-1-yl)-9-chloro-10-(2-(trifluoromethyl)phenyl)-2,3-dihydro-5H-[1,4]oxazino[2,3,4-ij]quinazolin-5-one] | 0% |
| C=CC(=O)N1CCN(c2nc(=O)n3c4c(c(-c5c(O)cccc5F)c(Cl)cc24)OC[C@@H]3CN2CCOCC2)[C@@H](C)C1 [Example 195, (3S,10R)-7-((S)-4-acryloyl-2-methylpiperazin-1-yl)-9-chloro-10-(2-fluoro-6-hydroxyphenyl)-3-(morpholinomethyl)-2,3-dihydro-5H-[1,4]oxazino[2,3,4-ij]quinazolin-5-one] | 0% |

Same assay, conditions: Table 7; 10 micromolar, after 60 minutes

| Compound | covalent adduct formation (CAF) |
| --- | --- |
| C=CC(=O)N1CCN(c2nc(=O)n3c4c(c(-c5ccc(F)cc5F)c(Cl)cc24)SC[C@H]3C)[C@@H](C)C1 [Example 99, (3R)-7-((S)-4-acryloyl-2-methylpiperazin-1-yl)-9-chloro-10-(2,4-difluorophenyl)-3-methyl-2H-[1,4]thiazino[2,3,4-ij]quinazolin-5(3H)-one] | 87.2 |
| C=CC(=O)N1CCN(c2nc(=O)n3c4c(c(-c5ccc(F)cc5F)c(Cl)cc24)SC[C@H]3CN2CCN(CC)CC2)[C@@H](C)C1 [Example 346, (3R)-7-((S)-4-acryloyl-2-methylpiperazin-1-yl)-9-chloro-10-(2,4-difluorophenyl)-3-((4-ethylpiperazin-1-yl)-methyl)-2H-[1,4]-thiazino[2,3,4-ij]-quinazolin-5(3H)-one] | 79.3 |
| C=CC(=O)N1CCN(c2nc(=O)n3c4c(c(-c5c(F)cc(F)cc5F)c(Cl)cc24)SC[C@H]3CC2CCN(C)CC2)[C@@H](C)C1 [Example 344, (R)-7-((S)-4-acryloyl-2-methylpiperazin-1-yl)-9-chloro-3-((1-methylpiperidin-4-yl)-methyl)-10-(2,4,6-trifluorophenyl)-2H-[1,4]thiazino[2,3,4-ij]-quinazolin-5(3H)-one] | 94.8 |
| C=CC(=O)N1CCN(c2nc(=O)n3c4c(c(-c5ccc(F)cc5F)c(Cl)cc24)SC[C@H]3COC)[C@@H](C)C1 [Example 130, (3R)-7-((S)-4-acryloyl-2-methylpiperazin-1-yl)-9-chloro-10-(2,4-difluorophenyl)-3-(methoxymethyl)-2,3-dihydro-5H-[1,4]thiazino[2,3,4-ij]quinazolin-5-one] | 94.5 |
| C=CC(=O)N1CCN(c2nc(=O)n3c4c(c(-c5ccc(F)cc5F)c(Cl)cc24)SC(C)(C)C3)[C@@H](C)C1 [Example 76, 7-((S)-4-acryloyl-2-methylpiperazin-1-yl)-9-chloro-10-(2,4-difluorophenyl)-2,2-dimethyl-2,3-dihydro-5H-[1,4]thiazino[2,3,4-ij]quinazolin-5-one] | 86.8 |
| C=CC(=O)N1CCN(c2nc(=O)n3c4c(c(-c5c(F)cc(F)cc5F)c(Cl)cc24)SC[C@H]3COC)[C@@H](C)C1 [Example 137, (R)-7-((S)-4-acryloyl-2-methylpiperazin-1-yl)-9-chloro-3-(methoxymethyl)-10-(2,4,6-trifluorophenyl)-2,3-dihydro-5H-[1,4]thiazino[2,3,4-ij]quinazolin-5-one] | 86.8 |
| C=CC(=O)N1CCN(c2nc(=O)n3c4c(c(-c5c(F)cc(F)cc5F)c(Cl)cc24)SC[C@@H]3CC2CCN(C)CC2)[C@@H](C)C1 [Example 343, (S)-7-((S)-4-acryloyl-2-methylpiperazin-1-yl)-9-chloro-3-((1-methylpiperidin-4-yl)-methyl)-10-(2,4,6-trifluorophenyl)-2H-[1,4]thiazino[2,3,4-ij]-quinazolin-5(3H)-one] | 96.7 |
